Source: patent US8623879B2, “1-heterocyclyl-1,5-dihydro-pyrazolo[3,4-D] pyrimidin-4-one derivates and their use as PDE9A modulators” (Boehringer Ingelheim International GmbH, priority 2008, dated 2014)

Biological target: T1, human PDE9A2 (Homo sapiens, UniProt O76083)
T1 construct: made in house; host or cells: Sf9 insect cells (infected); crude lysate used as enzyme source
Assay: PDE9A2 enzymatic activity assay (scintillation proximity assay, SPA)
Assay type: biochemical
Settings: for inhibition at 10 µM: read-out: % inhibition of PDE9A2 (at 10 micromolar concentration), 10 micromolar concentration; for inhibition at 10 µM / % inhibition of PDE9A2 (at 10 micromolar concentration): values above 100% adjusted to 100%; for IC50: reported only as range 1-100 or 101-1200 nanomolar, specific value lies within range, read-out: IC50 within range [nanomolar (nM)]

T1 sequence (O76083 1-533 isoform O76083-2): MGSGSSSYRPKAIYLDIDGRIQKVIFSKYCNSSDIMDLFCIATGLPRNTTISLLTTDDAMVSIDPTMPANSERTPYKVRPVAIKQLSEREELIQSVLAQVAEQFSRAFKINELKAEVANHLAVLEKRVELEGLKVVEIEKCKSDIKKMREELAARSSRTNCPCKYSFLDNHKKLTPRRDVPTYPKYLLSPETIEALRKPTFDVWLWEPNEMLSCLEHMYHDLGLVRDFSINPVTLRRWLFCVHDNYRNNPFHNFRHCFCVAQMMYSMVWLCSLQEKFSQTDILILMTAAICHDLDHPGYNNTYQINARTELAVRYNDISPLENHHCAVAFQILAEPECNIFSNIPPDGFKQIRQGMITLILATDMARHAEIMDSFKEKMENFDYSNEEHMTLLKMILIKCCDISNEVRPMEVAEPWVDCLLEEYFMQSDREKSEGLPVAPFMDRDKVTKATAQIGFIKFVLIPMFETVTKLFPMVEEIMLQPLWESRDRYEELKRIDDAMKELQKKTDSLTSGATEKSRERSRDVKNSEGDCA

inhibition at 10 µM	IC50	% inhibition of PDE9A2 (at 10 micromolar concentration)	SMILES
92%	101 to 1200 nM	–	O=c1[nH]c(CC2CCCC2)nc2c1cnn2C1CCCN(CC(F)(F)F)C1 (racemic) [Example 191]
100%	101 to 1200 nM	–	O=c1[nH]c(CC2CCC2)nc2c1cnn2C1CCCN(CC(F)(F)F)C1 (racemic) [Example 192]
99%	101 to 1200 nM	–	O=c1[nH]c(CC2CCCC2)nc2c1cnn2C1CCCN(CC(F)F)C1 (racemic) [Example 193]
97%	101 to 1200 nM	–	O=c1[nH]c(CC2CCCC2)nc2c1cnn2C1CCNC1 (racemic) [Example 194]
91%	101 to 1200 nM	–	O=c1[nH]c(CC2CCCC2)nc2c1cnn2C1CCCNC1 (racemic) [Example 196]
91%	101 to 1200 nM	–	O=c1[nH]c(Cc2ccccc2)nc2c1cnn2C1CCCNC1 (racemic) [Example 197]
100%	101 to 1200 nM	–	O=c1[nH]c(Cc2ccccc2OC(F)(F)F)nc2c1cnn2C1CCCNC1 (racemic) [Example 198]
88%	101 to 1200 nM	–	O=c1[nH]c(Cc2ccccc2)nc2c1cnn2C1CCNC1 (racemic) [Example 199]
91%	101 to 1200 nM	–	O=c1[nH]c(Cc2ccccc2OC(F)(F)F)nc2c1cnn2C1CCNC1 (racemic) [Example 200]
85%	101 to 1200 nM	–	O=c1[nH]c(CC2CCC2)nc2c1cnn2C1CCNC1 (racemic) [Example 201]
87%	101 to 1200 nM	–	O=c1[nH]c(Cc2ccccc2F)nc2c1cnn2C1CCCNC1 (racemic) [Example 204]
100%	1 to 100 nM	–	O=c1[nH]c(Cc2cccc(C(F)(F)F)c2)nc2c1cnn2C1CCCNC1 (racemic) [Example 205]
82%	101 to 1200 nM	–	O=c1[nH]c(CC2CCC2)nc2c1cnn2C1CCCNC1 (racemic) [Example 206]
100%	1 to 100 nM	–	CN1CCC(n2ncc3c(=O)[nH]c(CC4CCCC4)nc32)C1 (racemic) [Example 207]
100%	101 to 1200 nM	–	CN1CCCC(n2ncc3c(=O)[nH]c(CC4CCCC4)nc32)C1 (racemic) [Example 208]
89%	101 to 1200 nM	–	CN1CCCC(n2ncc3c(=O)[nH]c(Cc4ccccc4OC(F)(F)F)nc32)C1 (racemic) [Example 209]
97%	1 to 100 nM	–	CN1CCC(n2ncc3c(=O)[nH]c(Cc4ccccc4)nc32)C1 (racemic) [Example 210]
99%	1 to 100 nM	–	CN1CCC(n2ncc3c(=O)[nH]c(Cc4ccccc4OC(F)(F)F)nc32)C1 (racemic) [Example 211]
92%	101 to 1200 nM	–	COc1ccccc1Cc1nc2c(cnn2C2CCN(C)C2)c(=O)[nH]1 (racemic) [Example 212]
98%	1 to 100 nM	–	CN1CCC(n2ncc3c(=O)[nH]c(CC4CCC4)nc32)C1 (racemic) [Example 214]
93%	101 to 1200 nM	–	CN1CCCC(n2ncc3c(=O)[nH]c(Cc4ccccc4)nc32)C1 (racemic) [Example 215]
96%	1 to 100 nM	–	CN1CCCC(n2ncc3c(=O)[nH]c(Cc4cccc(C(F)(F)F)c4)nc32)C1 (racemic) [Example 216]
97%	101 to 1200 nM	–	CN1CCCC(n2ncc3c(=O)[nH]c(Cc4ccccc4F)nc32)C1 (racemic) [Example 217]
88%	101 to 1200 nM	–	CN1CCCC(n2ncc3c(=O)[nH]c(CC4CCC4)nc32)C1 (racemic) [Example 218]
–	101 to 1200 nM	90%	CC(Cc1nc2c(cnn2C2CCOCC2)c(=O)[nH]1)C(F)(F)F (single isomer, unassigned) [Example 132]

Further lines, the molecule ahead of its results:

SMILES	inhibition at 10 µM	IC50	% inhibition of PDE9A2 (at 10 micromolar concentration)
CCC(Cc1nc2c(cnn2C2CCOCC2)c(=O)[nH]1)C(F)(F)F (single isomer, unassigned) [Example 61]	97%	1 to 100 nM	–
CCC(Cc1nc2c(cnn2C2CCOCC2)c(=O)[nH]1)C(F)(F)F (single isomer, unassigned) [Example 62]	–	1 to 100 nM	95%
CC(Cc1nc2c(cnn2C2CCOCC2)c(=O)[nH]1)C(F)(F)F (single isomer, unassigned) [Example 131]	97%	1 to 100 nM	–
CC(C)Cc1nc2c(cnn2C2CCOC2)c(=O)[nH]1 (single isomer, unassigned) [Example 132-3]	89%	101 to 1200 nM	–
CC(C)Cc1nc2c(cnn2C2CCOC2)c(=O)[nH]1 (single isomer, unassigned) [Example 132-4]	–	1 to 100 nM	98%
O=c1[nH]c(CC2CCC2)nc2c1cnn2C1CCOC1 (single isomer, unassigned) [Example 132-6]	99%	1 to 100 nM	–
O=c1[nH]c(Cc2ccccn2)nc2c1cnn2C1CCOC1 (single isomer, unassigned) [Example 132-7]	94%	1 to 100 nM	–
O=c1[nH]c(CC2CCC2)nc2c1cnn2C1CCOC1 (single isomer, unassigned) [Example 132-9]	–	101 to 1200 nM	95%
O=c1[nH]c(CC2CCCCCC2)nc2c1cnn2C1CCOCC1 [Example 1]	100%	1 to 100 nM	–
Cc1ccccc1Cc1nc2c(cnn2C2CCOCC2)c(=O)[nH]1 [Example 2]	99%	1 to 100 nM	–
CC(C)CCc1nc2c(cnn2C2CCOCC2)c(=O)[nH]1 [Example 3]	99%	1 to 100 nM	–
O=c1[nH]c(Cc2ccccc2Cl)nc2c1cnn2C1CCOCC1 [Example 4]	98%	1 to 100 nM	–
O=c1[nH]c(Cc2ccccc2Br)nc2c1cnn2C1CCOCC1 [Example 5]	99%	1 to 100 nM	–
O=c1[nH]c(Cc2c(F)cccc2Cl)nc2c1cnn2C1CCOCC1 [Example 6]	98%	1 to 100 nM	–
O=c1[nH]c(Cc2cc(F)cc(F)c2)nc2c1cnn2C1CCOCC1 [Example 7]	98%	1 to 100 nM	–
CCCCc1nc2c(cnn2C2CCOCC2)c(=O)[nH]1 [Example 8]	100%	1 to 100 nM	–
O=c1[nH]c(CCC2CCCC2)nc2c1cnn2C1CCOCC1 [Example 9]	99%	1 to 100 nM	–
O=c1[nH]c(Cc2ccc(F)cc2Cl)nc2c1cnn2C1CCOCC1 [Example 10]	98%	1 to 100 nM	–
COc1ccc(Cc2nc3c(cnn3C3CCOCC3)c(=O)[nH]2)cc1 [Example 11]	98%	1 to 100 nM	–
O=c1[nH]c(C(F)(F)c2ccccc2)nc2c1cnn2C1CCOCC1 [Example 13]	90%	101 to 1200 nM	–
Cc1nc(Cc2nc3c(cnn3C3CCOCC3)c(=O)[nH]2)c(C)s1 [Example 24]	86%	101 to 1200 nM	–
O=c1[nH]c(CCCC(F)(F)F)nc2c1cnn2C1CCOCC1 [Example 25]	96%	1 to 100 nM	–
O=c1[nH]c(Cn2cccn2)nc2c1cnn2C1CCOCC1 [Example 26]	91%	101 to 1200 nM	–
